Source: ChEMBL document CHEMBL2046413, “Iridoid glucosides and a C₁₃-norisoprenoid from Lamiophlomis rotata and their effects on NF-κB activation” (Bioorg Med Chem Lett, 2012)

Columns and labels:
[1] = system: HEK293; experiment: Inhibition of LPS-induced NF-KB transcriptional activity expressed in HEK-293 cells at 1 ug/ml after 4 hrs by luciferase reporter gene assay relative to LPS-treated group; assay type: cell-based
[2] = system: HEK293; experiment: Inhibition of LPS-induced NF-KB transcriptional activity expressed in HEK-293 cells at 10 ug/ml after 4 hrs by luciferase reporter gene assay relative to LPS-treated group; assay type: cell-based
[3] = system: HEK293; experiment: Inhibition of LPS-induced NF-KB transcriptional activity expressed in HEK-293 cells at 100 ug/ml after 4 hrs by luciferase reporter gene assay relative to LPS-treated group; assay type: cell-based
[4] = system: HEK293; experiment: Inhibition of NF-KB production in human HEK293 cells by BCA protein assay; assay type: functional, cell-based

Row | Structure (SMILES) | NF-κB luciferase activity relative to LPS-treated group [1] | RLU [2] | NF-κB luciferase activity relative to LPS-treated group [3] | inhibition [4]
1 | COC(=O)C1=CO[C@@H](O[C@@H]2O[C@H](CO)[C@@H](O)[C@H](O)[C@H]2O)[C@H]2[C@@H]1[C@H](O)[C@H](O)[C@]2(C)O | 0.23 | 0.19 | 0.41 | –
2 | COC(=O)C1=CO[C@@H](O[C@@H]2O[C@H](CO)[C@@H](O)[C@H](O)[C@H]2O)[C@H]2[C@@H]1[C@H](O)C[C@]2(C)OC(C)=O | 0.13 | 0.4 | 0.34 | –
3 | C[C@]12CCC(=O)C=C1CC[C@@H]1[C@@H]2[C@@H](O)C[C@@]2(C)[C@H]1CC[C@]2(O)C(=O)CO | 0.26 | 0.32 | 0.45 | –
4 | CCCCO[C@@H]1C=C(C)[C@H]2[C@H](O[C@@H]3O[C@H](CO)[C@@H](O)[C@H](O)[C@H]3O)OC=C(C(=O)OC)[C@H]21 | 0.15 | 0.38 | 0.48 | Dose-dependent effect
5 | COC(=O)C1=CO[C@@H](O[C@@H]2O[C@H](CO)[C@@H](O)[C@H](O)[C@H]2O)[C@@H]2[C@H](C)[C@@H](O)C[C@H]12 | 0.14 | 0.13 | 0.26 | –
6 | COC(=O)C1=CO[C@@H](O[C@@H]2O[C@H](CO)[C@@H](O)[C@H](O)[C@H]2O)[C@H]2[C@@H]1[C@H](O)[C@@H]1O[C@]21C | 0.23 | 0.46 | 0.42 | –
7 | COC(=O)C1=CO[C@@H](O[C@@H]2O[C@H](CO)[C@@H](O)[C@H](O)[C@H]2O)[C@@H]2C(C)=C[C@@H](O)[C@H]12 | 0.5 | 0.59 | 0.68 | –
8 | COC(=O)C1=CO[C@@H](O[C@@H]2O[C@H](CO)[C@@H](O)[C@H](O)[C@H]2O)[C@@H]2[C@@H](C)[C@@H](O)C[C@H]12 | 0.66 | 0.56 | 0.56 | –
9 | COC(=O)C1=CO[C@@H](O[C@@H]2O[C@H](CO)[C@@H](O)[C@H](O)[C@H]2O)[C@@H]2[C@@](C)(O)[C@H](O)[C@@H](O)[C@]12O | 0.18 | 0.34 | 0.31 | –
10 | COC(=O)C1=CO[C@@H](O[C@@H]2O[C@H](COC(=O)c3cc(OC)c(O)c(OC)c3)[C@@H](O)[C@H](O)[C@H]2O)[C@H]2[C@@H]1[C@H](O)[C@@H]1O[C@]21C | 0.55 | 0.32 | 0.48 | –
11 | C=C1C[C@@H](O)[C@@H]2C(C(=O)OC)=CO[C@@H](O[C@@H]3O[C@H](CO)[C@@H](O)[C@H](O)[C@H]3O)[C@H]12 | 0.26 | 0.43 | 0.4 | –
12 | COC(=O)C1=CO[C@@H](O[C@@H]2O[C@H](CO)[C@@H](O)[C@H](O)[C@H]2O)[C@H]2[C@@H]1[C@H](O)[C@H](O)[C@@]2(C)O | 0.37 | 0.15 | 0.38 | –
13 | COC(=O)C1=CO[C@@H](O[C@@H]2O[C@H](CO)[C@@H](O)[C@H](O)[C@H]2O)[C@H]2[C@@H]1[C@H](O)[C@@H](Cl)[C@]2(C)O | 0.05 | 0.19 | 0.22 | –
14 | COC(=O)C1=CO[C@@H](O[C@@H]2O[C@H](CO)[C@@H](O)[C@H](O)[C@H]2O)[C@H]2[C@@H]1[C@H](OC(C)=O)C[C@]2(C)O | 0.06 | 0.13 | 0.11 | –
15 | COC(=O)C1=CO[C@@H](O[C@@H]2O[C@H](CO)[C@@H](O)[C@H](O)[C@H]2O)[C@@H]2C(C)=C[C@@H](O)[C@]12O | 0.06 | 0.18 | 0.24 | Dose-dependent effect
16 | C=CC(C)(O)CC/C=C(\C)C(=O)O[C@@H]1C[C@](C)(OC(C)=O)[C@H]2[C@H](O[C@@H]3O[C@H](CO)[C@@H](O)[C@H](O)[C@H]3O)OC=C(C(=O)OC)[C@H]21 (stereo partly specified) | 0.25 | 0.21 | 0.31 | –
17 | COC(=O)C1=CO[C@@H](O[C@@H]2O[C@H](CO)[C@@H](O)[C@H](O)[C@H]2O)[C@@H]2[C@H](C)CC[C@H]12 | 0.23 | 0.44 | 0.62 | Dose-dependent effect
18 | COC(=O)C1=CO[C@@H](O[C@@H]2O[C@H](CO)[C@@H](O)[C@H](O)[C@H]2O)[C@H]2[C@@H]1[C@H](O)C[C@]2(C)O | 0.39 | 0.21 | 0.31 | –
19 | COC(=O)C1=CO[C@@H](O[C@@H]2O[C@H](CO)[C@@H](O)[C@H](O)[C@H]2O)[C@H]2[C@@H]1[C@H](OC(=O)c1cc(OC)c(O)c(OC)c1)C[C@]2(C)OC(C)=O | 0.12 | 0.08 | 0.42 | –
20 | COC(=O)C1=CO[C@@H](O[C@@H]2O[C@H](CO)[C@@H](O)[C@H](O)[C@H]2O)[C@@H]2[C@@](C)(O)[C@@H](O)[C@@H](O)[C@]12O | 0.56 | 0.34 | 0.49 | –
21 | COC(=O)C1=CO[C@@H](O[C@@H]2O[C@H](CO)[C@@H](O)[C@H](O)[C@H]2O)[C@@H]2[C@@]3(C)O[C@H]3[C@@H](O)[C@]12O | 0.15 | 0.14 | 0.36 | –
